The record followed here is publication PMC6213020, “Identification of a Novel PPAR-γ Agonist through a Scaffold Tuning Approach” (International Journal of Molecular Sciences, 2018).

Read-outs that look alike come from different tables or passages of the source. A value given as a limit tells only on which side of the number the result lay.

Test [1] addresses T1, PPAR-γ (Homo sapiens, UniProt P37231).
T1 construct: host or cells: CV-1
T1 sequence (P37231 1-505): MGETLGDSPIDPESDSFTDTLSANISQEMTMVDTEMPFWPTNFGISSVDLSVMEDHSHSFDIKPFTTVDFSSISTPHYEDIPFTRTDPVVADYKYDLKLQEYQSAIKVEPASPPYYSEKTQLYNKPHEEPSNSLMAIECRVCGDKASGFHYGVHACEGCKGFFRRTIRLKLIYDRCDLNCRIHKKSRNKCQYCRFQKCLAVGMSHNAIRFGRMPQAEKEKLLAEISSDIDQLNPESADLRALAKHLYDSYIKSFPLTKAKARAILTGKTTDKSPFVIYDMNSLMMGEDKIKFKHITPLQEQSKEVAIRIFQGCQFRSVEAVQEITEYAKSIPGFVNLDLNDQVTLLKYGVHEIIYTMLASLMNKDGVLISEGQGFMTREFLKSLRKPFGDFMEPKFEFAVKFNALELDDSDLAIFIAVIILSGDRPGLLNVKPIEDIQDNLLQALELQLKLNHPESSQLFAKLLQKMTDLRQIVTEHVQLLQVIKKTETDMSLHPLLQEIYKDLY
Description: cell-based PPAR transactivation (luciferase) assay, PPAR-γ. To be noted: for activation at 10 µM: 24 h, compounds 10 µM, relative to maximum activation with pioglitazone (10 µM), PPAR-Luc in CV-1 cells, read-out: % max PPAR-γ. On the procedure: (§1) The PPAR activities of the synthesized dichloroanilide-linked indole analogs were assessed using a standard cell-based transactivation assay in CV-1 cells. GW7647 [42], pioglitazone, and GW0742 [43] were used as positive controls for PPAR-α, -γ, and -δ, respectively. These three positive controls presented the maximum activation for each PPAR subtype. The activity of the compounds was presented as the activation percentage (%) relative to the maximum values of the positive controls at the indicated concentrations.
(§2) Transient transfection and luciferase assay was carried out. CV-1 cells were seeded in 48-well plates at a density of 1.5 × 10^5 cells/well in Dulbecco’s modified Eagle’s medium (DMEM) with containing 10% fetal bovine serum (FBS). The cells were transiently transfected with plasmid mixtures containing PPAR-α/γ expression vector and tk-PPRE-luciferase (Luc) vector for 6 h and then treated with the samples for 24 h. HEK293t cells were seeded in a 60-mm dish at a density of 1.5 × 10^6 cells/dish. After transfection with the plasmid mixtures containing PPAR-δ expression vector and Luc vector for 6 h, the cells were transferred to a 96-well plate and treated with the samples. To normalize the transfection efficiency, a β-galactosidase plasmid was cotransfected. The luciferase activity in the cell lysates was measured using a luciferase assay system (Promega Corp., Madison, WI, USA), and the β-galactosidase activity was determined by measuring the absorbance at 410 nm using an ELISA plate reader. The data were expressed as the relative luciferase activity divided by the β-galactosidase activity. All constructs were kindly gifted by Dr. Ronald M. Evans at The Salk Institute (La Jolla, CA, USA).

Another test addresses T2, PPAR-δ (Homo sapiens, UniProt Q03181).
T2 construct: host or cells: HEK293t
T2 sequence (Q03181 1-441): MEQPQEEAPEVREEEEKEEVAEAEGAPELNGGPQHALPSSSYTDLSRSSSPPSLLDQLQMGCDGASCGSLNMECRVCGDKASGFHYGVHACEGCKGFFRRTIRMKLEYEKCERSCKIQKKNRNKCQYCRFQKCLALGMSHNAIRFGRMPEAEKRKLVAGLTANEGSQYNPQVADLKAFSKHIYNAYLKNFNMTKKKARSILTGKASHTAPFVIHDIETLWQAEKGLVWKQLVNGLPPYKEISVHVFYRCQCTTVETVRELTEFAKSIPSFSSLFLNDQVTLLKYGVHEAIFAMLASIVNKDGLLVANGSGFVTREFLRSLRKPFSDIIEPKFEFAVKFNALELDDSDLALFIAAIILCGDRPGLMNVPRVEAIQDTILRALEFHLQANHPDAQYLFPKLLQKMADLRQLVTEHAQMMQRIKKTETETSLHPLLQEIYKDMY
Description: cell-based PPAR transactivation (luciferase) assay, PPAR-δ. The following applies: compounds 10 µM; relative to maximum activation with GW0742 (10 μM); PPAR-Luc in HEK293t cells; read-out: % max PPAR-δ. On the procedure: as §1, §2

Another test deals with T3, PPAR-α (Homo sapiens, UniProt Q07869).
T3 construct: purchased Invitrogen / Thermo Fisher Scientific (assay service)
T3 sequence (Q07869 239-466 limits assumed): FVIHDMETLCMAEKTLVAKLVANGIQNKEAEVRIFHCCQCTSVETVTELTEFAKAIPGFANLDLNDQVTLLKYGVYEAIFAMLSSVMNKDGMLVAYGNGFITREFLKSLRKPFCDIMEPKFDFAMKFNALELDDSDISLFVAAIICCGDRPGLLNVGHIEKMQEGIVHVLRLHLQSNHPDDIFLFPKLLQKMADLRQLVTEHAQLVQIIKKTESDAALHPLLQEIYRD
The test can be described thus: TR-FRET LanthaScreen PPAR coactivator recruit assay, PPAR-α (PGC1a peptide). It is filed as biochemical. The source says:
(§3) Binding of agonist to the PPAR LBD causes a conformational change around helix 12 in the LBD, resulting in higher affinity for the coactivator peptide. When the terbium label on the anti-GST antibody complexed with PPAR is excited at 340 nm, energy is transferred to the fluorescein label on the coactivator peptide and detected as emission at 520 nm. […] Based on the biology of the PPAR-coactivator peptide interaction, this ligand EC50 is a composite value representing the amount of ligand required to bind to receptor, effect a conformational change, and recruit coactivator peptide. Potency of compounds show similar order to their activity (Table 3). […] Ligands such as TZDs show little or no binding to PPAR-δ. Compound 11 and 15 have ortho or meta substituted benzoic acid as an acidic head group. Their acidic head groups might seem to be too large to fit within the narrow PPAR-δ pocket. In contrast, the compound 1 and 2 contains an acetic acid head group that complements the narrow PPAR-δ ligand binding. […] The potency and selectivity of compound 11 could be explained by harmonization of steric effect of acidic head group, length and rigidity of hydrophobic tail, and properly tuned aromatic linker system.
(§4) EC50 of compounds were determined by recruitment of transcriptional coactivators using the TR-FRET based Lanthascreen coactivator assays (Invitrogen, Carlsbad, CA, USA). Which was serviced by Thermo Fisher Scientific (Medicon, WI, USA) according to the LanthaScreen TR-FRET coregulator protocol and assay conditions. Coregulator peptide PGC1a, TRAP220/DRIP2 and C33 was used for the coactivator recruit assay of PPAR-α, -γ, and -δ, respectively.

In test [2] the target is T4, PPAR-γ (Homo sapiens, UniProt P37231).
T4 construct: purchased Invitrogen / Thermo Fisher Scientific (assay service)
T4 sequence (P37231 238-503 limits assumed): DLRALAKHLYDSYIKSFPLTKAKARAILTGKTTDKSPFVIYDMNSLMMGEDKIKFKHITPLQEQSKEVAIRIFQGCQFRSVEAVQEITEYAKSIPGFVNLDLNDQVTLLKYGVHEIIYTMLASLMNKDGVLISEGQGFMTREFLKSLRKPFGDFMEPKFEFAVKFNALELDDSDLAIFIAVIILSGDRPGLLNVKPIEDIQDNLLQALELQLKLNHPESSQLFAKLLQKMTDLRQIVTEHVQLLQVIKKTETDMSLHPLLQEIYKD
Description: TR-FRET LanthaScreen PPAR coactivator recruit assay, PPAR-γ (TRAP220/DRIP2 peptide). In kind it is biochemical. The following applies: for EC50: TR-FRET coactivator recruit assay.
Source text: as §3, §4

As for `O=C(COc1ccc2c(ccn2Cc2ccccc2C(=O)O)c1)Nc1ccc(Cl)cc1Cl` [Compound 12, 2-((5-(2-((2,4-Dichlorophenyl)amino)-2-oxoethoxy)-1H-indol-1-yl)methyl)benzoic acid], the activation at 10 µM turned out to be 189.2 ± 1.67% at PPAR-γ [1] and 94.86 ± 0.2% at PPAR-δ. The “PPAR-γ activity relative to that of pioglitazone” value on PPAR-γ [1] (cell-based reporter assay) is reported as “approximately 2 fold”. For the same molecule, the EC50 was 3870 nM at PPAR-α and 1.96 nM at PPAR-γ [2] (read-out: EC50 PPAR-γ). Further, at PPAR-γ [2] (from coactivator recruit EC50), the “selectivity for PPAR-γ to PPAR-α” value was 1,970 fold. Also, the “selectivity for PPAR-γ to PPAR-δ” value at PPAR-γ [2] (from coactivator recruit EC50) was 16,600 fold.

As for `O=C(COc1ccc2ccn(Cc3ccccc3C(=O)O)c2c1)Nc1ccc(Cl)cc1Cl` [Compound 13, 2-((6-(2-((2,4-Dichlorophenyl)amino)-2-oxoethoxy)-1H-indol-1-yl)methyl)benzoic acid], the activation at 10 µM stood at 74.5 ± 0.94% at PPAR-γ [1] and 86.7 ± 0.53% at PPAR-δ. Also, the EC50 amounted to 16900 nM at PPAR-α and 571 nM on PPAR-γ [2] (read-out: EC50 PPAR-γ).

Turning to `O=C(COc1ccc2ccn(Cc3cccc(C(=O)O)c3)c2c1)Nc1ccc(Cl)cc1Cl` [Compound 15, 3-((6-(2-((2,4-Dichlorophenyl)amino)-2-oxoethoxy)-1H-indol-1-yl)methyl)benzoic acid], the activation at 10 µM on PPAR-γ [1] is 126.5 ± 0.92%; on PPAR-δ, 86.09 ± 0.31%. Besides, the EC50 was above 100000 nM on PPAR-α, 32.6 nM on PPAR-γ [2] (read-out: EC50 PPAR-γ) and 32.3 nM on PPAR-γ [2] (read-out: EC50 to PPAR-γ).

For the molecule `O=C(COc1ccc2c(c1)c(Cc1ccccc1)cn2Cc1ccccc1C(=O)O)Nc1ccc(Cl)cc1Cl` [Compound 18, 2-((3-Benzyl-5-(2-((2,4-dichlorophenyl)amino)-2-oxoethoxy)-1H-indol-1-yl)methyl)benzoic acid], the activation at 10 µM was found to be 93.2 ± 0.59% on PPAR-γ [1] and 75.88 ± 0.35% at PPAR-δ. Besides, the EC50 on PPAR-α was above 100000 nM; at PPAR-γ [2] (read-out: EC50 PPAR-γ), above 11100 nM.
